Test [1] deals with Somatostatin receptor type 5 (Homo sapiens, UniProt P35346).
Test [2] concerns the target Somatostatin receptor type 3 (Homo sapiens, UniProt P32745).
The target of test [3] is Somatostatin receptor type 2 (Homo sapiens, UniProt P30874).
Test [4] addresses Somatostatin receptor type 4 (Homo sapiens, UniProt P31391).
Test [5] deals with Somatostatin receptor type 2 (Rattus norvegicus, UniProt P30680).

This passage reports Ki results from BindingDB's records for doi:10.1016/s0028-3908(00)00035-6 (University of Cambridge, 2000).

The structures appear in SMILES notation. Values joined by “and” are separate entries in the source; they are usually repeats but may differ in a detail not shown here. Identical values can stand only once.

Somatostatin receptor type 2 (Rattus norvegicus, UniProt P30680), sequence (P30680 whole entry): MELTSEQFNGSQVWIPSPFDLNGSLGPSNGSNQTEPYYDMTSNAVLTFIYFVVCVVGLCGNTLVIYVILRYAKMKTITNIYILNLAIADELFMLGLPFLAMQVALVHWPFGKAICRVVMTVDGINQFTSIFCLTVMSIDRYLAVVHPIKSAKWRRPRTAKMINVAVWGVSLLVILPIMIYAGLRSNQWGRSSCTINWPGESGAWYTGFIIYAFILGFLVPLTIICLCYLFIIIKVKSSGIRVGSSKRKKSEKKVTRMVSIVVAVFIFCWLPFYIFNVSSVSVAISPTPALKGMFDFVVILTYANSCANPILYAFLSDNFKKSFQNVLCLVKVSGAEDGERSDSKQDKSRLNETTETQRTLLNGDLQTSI
Somatostatin receptor type 2 (Homo sapiens, UniProt P30874), sequence (P30874 whole entry): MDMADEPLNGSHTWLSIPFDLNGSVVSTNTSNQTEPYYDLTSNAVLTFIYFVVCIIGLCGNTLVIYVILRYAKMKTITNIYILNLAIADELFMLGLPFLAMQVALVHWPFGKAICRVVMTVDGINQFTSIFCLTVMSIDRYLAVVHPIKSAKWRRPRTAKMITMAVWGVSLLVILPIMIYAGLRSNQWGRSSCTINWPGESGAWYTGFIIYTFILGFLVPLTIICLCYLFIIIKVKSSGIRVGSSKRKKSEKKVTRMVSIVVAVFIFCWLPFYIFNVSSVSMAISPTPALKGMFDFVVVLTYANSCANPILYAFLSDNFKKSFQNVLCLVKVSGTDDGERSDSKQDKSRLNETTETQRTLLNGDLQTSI
Somatostatin receptor type 4, sequence (P31391 whole entry): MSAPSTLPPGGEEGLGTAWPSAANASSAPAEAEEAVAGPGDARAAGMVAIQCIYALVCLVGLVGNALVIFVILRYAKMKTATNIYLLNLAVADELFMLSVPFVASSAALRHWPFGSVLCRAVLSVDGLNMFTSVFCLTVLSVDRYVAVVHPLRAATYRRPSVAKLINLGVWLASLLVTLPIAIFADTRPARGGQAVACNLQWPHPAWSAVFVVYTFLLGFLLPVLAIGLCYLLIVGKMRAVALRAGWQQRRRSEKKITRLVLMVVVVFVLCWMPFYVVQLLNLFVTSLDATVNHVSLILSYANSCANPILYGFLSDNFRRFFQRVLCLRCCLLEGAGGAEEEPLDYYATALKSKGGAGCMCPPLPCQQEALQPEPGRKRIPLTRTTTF
Somatostatin receptor type 5, sequence (P35346 whole entry): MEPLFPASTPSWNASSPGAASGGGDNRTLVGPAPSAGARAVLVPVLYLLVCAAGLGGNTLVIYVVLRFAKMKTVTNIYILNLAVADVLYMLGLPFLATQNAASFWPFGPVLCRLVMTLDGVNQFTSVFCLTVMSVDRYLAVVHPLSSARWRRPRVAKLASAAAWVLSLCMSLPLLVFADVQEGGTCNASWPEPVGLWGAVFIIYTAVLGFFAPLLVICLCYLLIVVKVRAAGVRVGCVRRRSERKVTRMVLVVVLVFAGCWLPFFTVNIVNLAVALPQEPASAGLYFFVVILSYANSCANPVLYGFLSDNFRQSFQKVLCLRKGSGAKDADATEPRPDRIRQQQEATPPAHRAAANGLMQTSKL
Somatostatin receptor type 3, sequence (P32745 whole entry): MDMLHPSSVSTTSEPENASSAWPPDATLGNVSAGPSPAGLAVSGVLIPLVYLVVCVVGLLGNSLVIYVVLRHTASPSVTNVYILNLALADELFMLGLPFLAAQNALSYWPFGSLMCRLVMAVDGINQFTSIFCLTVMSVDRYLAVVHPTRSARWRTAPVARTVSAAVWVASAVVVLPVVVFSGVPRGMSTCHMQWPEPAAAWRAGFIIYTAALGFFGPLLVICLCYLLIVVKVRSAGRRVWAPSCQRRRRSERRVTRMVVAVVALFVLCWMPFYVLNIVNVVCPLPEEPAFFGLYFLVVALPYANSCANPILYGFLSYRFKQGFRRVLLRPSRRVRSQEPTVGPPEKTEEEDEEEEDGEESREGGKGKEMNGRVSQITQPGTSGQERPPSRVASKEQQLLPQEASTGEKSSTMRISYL

The term Ki denotes a dissociation constant, usually derived from enzyme kinetics or from competition with a known ligand. As for `CC(=O)N[C@@H](Cc1ccc([N+](=O)[O-])cc1)C(=O)N[C@@H]1CSSC[C@@H](C(=O)N[C@H](Cc2ccc(O)cc2)C(N)=O)NC(=O)[C@H]([C@@H](C)O)NC(=O)[C@H](CCCCN)NC(=O)[C@@H](Cc2c[nH]c3ccccc23)NC(=O)[C@H](Cc2ccc(O)cc2)NC1=O` [CAS_183658-72-2], the Ki in test [1] is 331 nM; in test [2], 851 nM; in test [3], 2.63 nM; in test [4] it was 1740 nM; in test [5] it was 7.94 nM and 4.47 nM.
